Test results reported in patent publication US20230000808A1, “COMPOSITIONS AND METHODS EXCLUDING OR WITH REDUCED GLUTAMINE FOR THE TREATMENT OF HEMOGLOBINOPATHIES AND THALASSEMIAS” (AXCELLA HEALTH INC., priority 2019, published 2023).

What was measured:
[1] = tested on: IL-6; experiment: LPS-induced IL-6 secretion in primary human monocyte-derived macrophages (ELISA); assay type: cell-based; design: Donor 1 IL-6 Measurements Mean: unit not given here; settings: for Donor 1 IL-6 Measurements Mean / Donor 2 IL-6 Measurements Mean / Donor 3 IL-6 Measurements Mean: LPS, baseline subtracted
Experimental: (§1) Primary human PMBC derived macrophages were seeded on day 0 at 3.0×10^4 cells per well in 96-well microplates (ThermoFisher) in Dulbecco's Modified Eagle Medium (DMEM) (Gibco) supplemented with penicillin-streptomycin (Hyclone) and 10% heat inactivated fetal bovine serum (HI-FBS) (Atlanta Bio) and incubated overnight at 37° C., 5% CO2. On day 1, cells were washed once with 150 μl per well DPBS (Gibco) and treated with 75 μl of: • a. […] The same medium described above with one amino acid at various concentrations including complete dropout. […] On day 3, the supernatant was collected and immediately frozen in −80° C. freezer. Cells were washed once with 150 μl DPBS and viability was assessed using the WST-8 Cell Proliferation Cytotoxicity Assay (Dojindo). […] Protein levels in supernatant samples were analyzed by ELISA for IL-6 and TNFα using commercially available kits (R&D Systems) according to manufacturer-supplied protocols.

[2] = tested on: TNFα; experiment: LPS-induced TNF-α secretion in primary human monocyte-derived macrophages (ELISA); assay type: cell-based; settings: for TNF-α Measurements Mean: LPS, baseline subtracted
Experimental: as §1

[3] = tested on: IL-6; experiment: Secreted IL-6 in HLMVEC treated with TNF-α (FirePlex); assay type: cell-based, human; settings: HLMVEC + 0.5 ng/mL TNF-α, 24 h; amino acids 20x HMDB, Nac/Cit/Car 5 mM as bracketed
Experimental: (§2) Primary Human Lung Microvascular Endothelial Cells (HLMVEC; Lonza) were seeded at 6,000 cells per well in Endothelial Cell Growth Basal Medium-2 (Lonza) supplemented with Fetal Bovine Serum (FBS; Lonza), human EGF (Lonza), human VEGF (Lonza), R3-Insulin-like Growth Factor-1 (Lonza), ascorbic acid (Lonza), hydrocortisone (Lonza), human FGF-beta (Lonza), and gentamicin/amphotericin-b (Lonza) in a 96-well plate (Thermo Fisher). The cells were incubated for 45 minutes at room temperature, then incubated overnight at 37° C./5% CO2.
(§3) Following overnight incubation, cell were washed once with 150 μL of Dulbecco's phosphate buffered saline (DPBS; Gibco), and then treated with Endothelial Basal Medium MCB-131 (amino acid, glucose, sodium pyruvate, and phenol red free; US Biologicals) containing a defined custom amino acid concentration based on physiological concentrations in blood of patients with SCD (thus recapitulating observed metabolic imbalances such as the depletion of certain essential amino acids including arginine and aspartate and enrichment of certain non-essential amino acids including glutamate and asparagine), dialyzed FBS (Hyclone), human EGF (Lonza), human VEGF (Lonza), R3-Insulin-like Growth Factor-1 (Lonza), ascorbic acid (Lonza), hydrocortisone (Lonza), human FGF-beta (Lonza), and gentamicin/amphotericin-b (Lonza), glucose, 10 mM HEPES, sodium pyruvate, and sodium bicarbonate supplemented with one of the following: • a. PBS (vehicle control), • b. 0.5 ng/mL Tumor Necrosis Factor alpha (TNFα) and PBS, or; • c. 0.5 ng/mL TNF-α and amino acid treatments at 20× mean physiological concentrations in plasma based on values published in the Human Metabolome Database (HMDB) in PBS.
Supernatants were analyzed for IL-6 concentrations using a Human Cytokines FirePlex-HT Panel 1 kit (abcam) according to the manufacturer-supplied instructions. Particles were imaged on a high content imager (Molecular Devices), and results were interpolated from a standard curve with FirePlex Analysis Workbench Software (abcam) according manufacturer's recommendations.

[4] = tested on: HLMVEC; experiment: META-rank score, composite of VCAM1, ICAM1 and IL6 in the HLMVEC model; assay type: cell-based, human; settings: HLMVEC + TNF-α; lower score = more optimal; 20x HMDB / 5 mM
Experimental: The ability of single amino acids and combinations to simultaneously impact these phenotypes was measured by a META-rank score (Tables 17 and 18). META-rank score is a composite measure that considers the optimal impact on all 3 phenotypes (e.g. decrease VCAM1, ICAM1, and IL6) in the HLMVEC model.

[5] = tested on: VCAM-1; experiment: VCAM-1 cell integrated intensity in HLMVEC treated with TNF-α (immunofluorescence); assay type: cell-based, human; settings: HLMVEC + 0.5 ng/mL TNF-α, 24 h; amino acids 20x HMDB, Nac/Cit/Car 5 mM as bracketed
Experimental: as §2, §3
(§4) After 24 hours of treatment, cells were washed once with 150 μL of DPBS (Gibco), then fixed with 4% paraformaldehyde. Following fixation, cells were stained with anti-ICAM-1 [MEM-111] (mouse IgG2a anti-human; abcam) and anti-VCAM1 [1.4C3] (mouse IgG1, K anti-human; abcam) primary antibodies at 1000×, and 100× dilutions respectively. Cells were then stained with Goat anti-Mouse IgG2a Cross-Adsorbed Secondary Antibody, Alexa Fluor 594 (Invitrogen) and Goat anti-Mouse IgG1 Cross-Adsorbed Secondary Antibody, Alexa Fluor 647 (Invitrogen) secondary antibodies. Nuclei were stained with Hoechst 3342 (Life Technologies).
(§5) Antibody binding was detected by fluorescence microscopy using a high content imager (Molecular Devices). Images were analyzed using MetaXpress 6 software to determine the integrated intensity per cell for each wavelength corresponding to ICAM-1 or VCAM-1.

[6] = tested on: ICAM-1; experiment: ICAM-1 cell integrated intensity in HLMVEC treated with TNF-α (immunofluorescence); assay type: cell-based, human; settings: HLMVEC + 0.5 ng/mL TNF-α, 24 h; amino acids 20x HMDB, Nac/Cit/Car 5 mM as bracketed
Experimental: as §2, §3, §4, §5

[7] = Donor 2, Conc. 153 μM (baseline)
[8] = Donor 2, Conc. 234 μM (baseline)

CC(C)C[C@H](N)C(=O)O [Leucine]
Donor 1 IL-6 Measurements Mean ([1]; Conc. 153 μM (baseline)): 0
Donor 1 IL-6 Measurements Mean ([1]; Conc. 3054 μM): 244.9743
Donor 1 IL-6 Measurements Mean ([1]; Conc. 7635 μM): −69.9873
Donor 1 IL-6 Measurements Mean ([1]; Conc. 15270 μM): 84.46
Donor 2 IL-6 Measurements Mean [1, 7]: 7.11E−15
Donor 2 IL-6 Measurements Mean ([1]; Donor 2, Conc. 3054 μM): 29.61
Donor 2 IL-6 Measurements Mean ([1]; Donor 2, Conc. 7635 μM): 30.46
Donor 2 IL-6 Measurements Mean ([1]; Donor 2, Conc. 15270 μM): 47.6
effect on LPS-induced IL-6 secretion ([1]; Donor 2, Two Way ANOVA Dunnett): increased
TNF-α Measurements Mean ([2]; Donor 1, Conc. 153 μM (baseline)): 0
TNF-α Measurements Mean ([2]; Donor 1, Conc. 3054 μM): 42.04
TNF-α Measurements Mean ([2]; Donor 1, Conc. 7635 μM): −23.04
TNF-α Measurements Mean ([2]; Donor 1, Conc. 15270 μM): −46.21
TNF-α Measurements Mean [2, 7]: 0
TNF-α Measurements Mean ([2]; Donor 2, Conc. 3054 μM): 31.74
TNF-α Measurements Mean ([2]; Donor 2, Conc. 7635 μM): 41.98
TNF-α Measurements Mean ([2]; Donor 2, Conc. 15270 μM): 46.69
effect on LPS-induced TNF-α secretion ([2]; Donor 2, Two Way ANOVA Dunnett): increased

NCCCC[C@H](N)C(=O)O [Lys]
Secreted IL6 Median [3]: 0.132
Meta-Rank (Table 18) [4]: 15.5
Metarank (Table 17) [4]: 29
VCAM-1 Cell Integrated Intensity Median [5]: 0.025
ICAM-1 Cell Integrated Intensity Median [6]: 0.064

NCCC[C@H](N)C(=O)O [Orn]
Secreted IL6 Median [3]: −0.378
Meta-Rank (Table 18) [4]: 6.5
Metarank (Table 17) [4]: 11
VCAM-1 Cell Integrated Intensity Median [5]: −0.196
ICAM-1 Cell Integrated Intensity Median [6]: −0.197

N[C@@H](CO)C(=O)O [Ser]
Secreted IL6 Median [3]: −0.153
Meta-Rank (Table 18) [4]: 19
Metarank (Table 17) [4]: 23
VCAM-1 Cell Integrated Intensity Median [5]: 0.139
ICAM-1 Cell Integrated Intensity Median [6]: 0.076

N[C@@H](Cc1c[nH]c2ccccc12)C(=O)O [Trp]
Secreted IL6 Median [3]: −0.357
Meta-Rank (Table 18) [4]: 24
Metarank (Table 17) [4]: 12
VCAM-1 Cell Integrated Intensity Median [5]: 0.162
ICAM-1 Cell Integrated Intensity Median [6]: 0.171

CC(C)[C@H](N)C(=O)O [Val]
Secreted IL6 Median [3]: −0.224
Meta-Rank (Table 18) [4]: 25.5
Metarank (Table 17) [4]: 18
VCAM-1 Cell Integrated Intensity Median [5]: 0.315
ICAM-1 Cell Integrated Intensity Median [6]: 0.167

CC(C)[C@H](N)C(=O)O [Valine]
Donor 1 IL-6 Measurements Mean ([1]; Conc. 234 μM (baseline)): 0
Donor 1 IL-6 Measurements Mean ([1]; Conc. 4684 μM): −85.9843
Donor 1 IL-6 Measurements Mean ([1]; Conc. 11710 μM): −97.25
Donor 1 IL-6 Measurements Mean ([1]; Conc. 23420 μM): −106.268
Donor 2 IL-6 Measurements Mean [1, 8]: −4.7E−15
Donor 2 IL-6 Measurements Mean ([1]; Donor 2, Conc. 4684 μM): −4.528
Donor 2 IL-6 Measurements Mean ([1]; Donor 2, Conc. 11710 μM): −1.196
Donor 2 IL-6 Measurements Mean ([1]; Donor 2, Conc. 23420 μM): 4.396
Donor 3 IL-6 Measurements Mean ([1]; Conc. 234 μM (baseline)): 4.26E−14
Donor 3 IL-6 Measurements Mean ([1]; Conc. 4684 μM): −30.0609
Donor 3 IL-6 Measurements Mean ([1]; Conc. 11710 μM): −43.8022
Donor 3 IL-6 Measurements Mean ([1]; Conc. 23420 μM): −29.2004
TNF-α Measurements Mean ([2]; Donor 1, Conc. 234 μM (baseline)): 0
TNF-α Measurements Mean ([2]; Donor 1, Conc. 4684 μM): −40.37
TNF-α Measurements Mean ([2]; Donor 1, Conc. 11710 μM): −41.77
TNF-α Measurements Mean ([2]; Donor 1, Conc. 23420 μM): −14.98
TNF-α Measurements Mean [2, 8]: −4.7E−15
TNF-α Measurements Mean ([2]; Donor 2, Conc. 4684 μM): −0.00221
TNF-α Measurements Mean ([2]; Donor 2, Conc. 11710 μM): −0.835
TNF-α Measurements Mean ([2]; Donor 2, Conc. 23420 μM): −1.251
TNF-α Measurements Mean ([2]; Donor 3, Conc. 234 μM (baseline)): −2.4E−15
TNF-α Measurements Mean ([2]; Donor 3, Conc. 4684 μM): 0.126
TNF-α Measurements Mean ([2]; Donor 3, Conc. 11710 μM): −2.599
TNF-α Measurements Mean ([2]; Donor 3, Conc. 23420 μM): 3.688
